This note sets out measurements from article PMC5218480 (PLoS ONE, 2017).

The assay concerns MV-4-11 cells. The assay is described as follows: Gene expression microarray analysis (Affymetrix PrimeView) and GSEA. Details: RFU PODN (11730768_x_at) / Fold change /veh PODN (11730768_x_at) / RFU LINC00158 (11744669_a_at) / Fold change /veh LINC00158 (11744669_a_at) / RFU DUSP10 (11751237_a_at) / Fold change /veh DUSP10 (11751237_a_at) / RFU ID3 (11757404_x_at) / Fold change /veh ID3 (11757404_x_at) / RFU PLEKHG5 (11737974_s_at) / Fold change /veh PLEKHG5 (11737974_s_at) / RFU LRRC4B (11730491_at) / Fold change /veh LRRC4B (11730491_at) / RFU GIMAP4 (11747438_a_at) / Fold change /veh GIMAP4 (11747438_a_at) / RFU KRT8 (11758183_x_at) / Fold change /veh KRT8 (11758183_x_at) / RFU CNN1 (11734310_a_at) / Fold change /veh CNN1 (11734310_a_at) / RFU VPS37D (11726825_at) / Fold change /veh VPS37D (11726825_at) / RFU C10orf10 (11716522_x_at) / Fold change /veh C10orf10 (11716522_x_at) / RFU KIR2DL2 /// KIR2DL4 /// KIR2DL5A /// KIR2DL5B /// KIR2DS1 /// KIR2DS2 /// KIR2DS3 /// KIR2DS4 /// KIR3DL3 /// KIR3DL3 /// KIR3DS1 (11738374_at) / Fold change /veh KIR2DL2 /// KIR2DL4 /// KIR2DL5A /// KIR2DL5B /// KIR2DS1 /// KIR2DS2 /// KIR2DS3 /// KIR2DS4 /// KIR3DL3 /// KIR3DL3 /// KIR3DS1 (11738374_at) / RFU C1QL1 (11718748_at) / Fold change /veh C1QL1 (11718748_at) / RFU TMPRSS4 (11747572_a_at) / Fold change /veh TMPRSS4 (11747572_a_at) / RFU HAMP (11756126_x_at) / Fold change /veh HAMP (11756126_x_at) / RFU RNFT2 (11725882_a_at) / Fold change /veh RNFT2 (11725882_a_at) / RFU NR4A2 (11747474_a_at) / Fold change /veh NR4A2 (11747474_a_at) / RFU ABCC12 (11746883_a_at) / Fold change /veh ABCC12 (11746883_a_at) / RFU TMEM136 (11760407_x_at) / Fold change /veh TMEM136 (11760407_x_at) / RFU CLDN22 /// WWC2 (11732394_at) / Fold change /veh CLDN22 /// WWC2 (11732394_at) / RFU HLA-DPB1 (11760878_x_at) / Fold change /veh HLA-DPB1 (11760878_x_at) / RFU SPINT1 (11716480_a_at) / Fold change /veh SPINT1 (11716480_a_at) / RFU GAP43 (11754022_s_at) / Fold change /veh GAP43 (11754022_s_at) / RFU A4GNT (11735810_at) / Fold change /veh A4GNT (11735810_at) / RFU PRB3 (11715151_x_at) / Fold change /veh PRB3 (11715151_x_at) / RFU TUBB4B (11761932_at) / Fold change /veh TUBB4B (11761932_at) / RFU CAPN14 (11732068_a_at) / Fold change /veh CAPN14 (11732068_a_at) / RFU TMCC2 (11721928_a_at) / Fold change /veh TMCC2 (11721928_a_at) / RFU IRGQ (11745062_a_at) / Fold change /veh IRGQ (11745062_a_at) / RFU FAM174B (11720279_a_at) / Fold change /veh FAM174B (11720279_a_at) / RFU TMPRSS4 (11748680_a_at) / Fold change /veh TMPRSS4 (11748680_a_at) / RFU FAM212B (11763350_a_at) / Fold change /veh FAM212B (11763350_a_at) / RFU PLEKHG5 (11743358_a_at) / Fold change /veh PLEKHG5 (11743358_a_at) / RFU ZSCAN30 (11745921_a_at) / Fold change /veh ZSCAN30 (11745921_a_at) / RFU CMKLR1 (11741424_a_at) / Fold change /veh CMKLR1 (11741424_a_at) / RFU LOC101060620 /// MAPK8IP1 (11723275_at) / Fold change /veh LOC101060620 /// MAPK8IP1 (11723275_at) / RFU SPTSSB (11747773_x_at) / Fold change /veh SPTSSB (11747773_x_at) / RFU PRSS12 (11739890_at) / Fold change /veh PRSS12 (11739890_at) / RFU BIN1 (11741810_x_at) / Fold change /veh BIN1 (11741810_x_at) / RFU WNT11 (11732464_a_at) / Fold change /veh WNT11 (11732464_a_at) / RFU C10orf10 (11716521_a_at) / Fold change /veh C10orf10 (11716521_a_at) / RFU C5orf56 (11738089_at) / Fold change /veh C5orf56 (11738089_at) / RFU CYB561 (11721691_x_at) / Fold change /veh CYB561 (11721691_x_at) / RFU ANKRD19P (11752326_a_at) / Fold change /veh ANKRD19P (11752326_a_at) / RFU OR2T12 /// OR2T33 /// OR2T8 (11738714_s_at) / Fold change /veh OR2T12 /// OR2T33 /// OR2T8 (11738714_s_at) / RFU VCAN (11748164_a_at) / Fold change /veh VCAN (11748164_a_at) / RFU JSRP1 (11732532_at) / Fold change /veh JSRP1 (11732532_at) / RFU KRTAP10-11 (11738290_x_at) / Fold change /veh KRTAP10-11 (11738290_x_at) / RFU MYO3A (11730013_a_at) / Fold change /veh MYO3A (11730013_a_at) / RFU EBF3 (11725865_a_at) / Fold change /veh EBF3 (11725865_a_at) / RFU CAMK2N1 (11719241_x_at) / Fold change /veh CAMK2N1 (11719241_x_at) / RFU C5orf56 (11738088_a_at) / Fold change /veh C5orf56 (11738088_a_at) / RFU OLFML3 (11715873_a_at) / Fold change /veh OLFML3 (11715873_a_at) / RFU LOC100653217 /// NTM (11731650_a_at) / Fold change /veh LOC100653217 /// NTM (11731650_a_at) / RFU MAPK11 (11762145_a_at) / Fold change /veh MAPK11 (11762145_a_at) / RFU FIZ1 (11724087_x_at) / Fold change /veh FIZ1 (11724087_x_at) / RFU OASL (11726364_x_at) / Fold change /veh OASL (11726364_x_at) / RFU SOX15 (11748057_x_at) / Fold change /veh SOX15 (11748057_x_at) / RFU CD79A (11719716_a_at) / Fold change /veh CD79A (11719716_a_at) / RFU HIST1H1D (11736915_at) / Fold change /veh HIST1H1D (11736915_at) / RFU CASKIN2 (11723855_a_at) / Fold change /veh CASKIN2 (11723855_a_at) / RFU LOC730098 (11760151_x_at) / Fold change /veh LOC730098 (11760151_x_at) / RFU OR4N2 (11742367_at) / Fold change /veh OR4N2 (11742367_at) / RFU PRRT2 (11749266_a_at) / Fold change /veh PRRT2 (11749266_a_at) / RFU SNX32 (11753110_a_at) / Fold change /veh SNX32 (11753110_a_at) / RFU CDHR5 (11726645_a_at) / Fold change /veh CDHR5 (11726645_a_at) / RFU RCAN1 (11760418_a_at) / Fold change /veh RCAN1 (11760418_a_at) / RFU FAM167A (11723789_a_at) / Fold change /veh FAM167A (11723789_a_at) / RFU FAM26E (11764081_at) / Fold change /veh FAM26E (11764081_at) / RFU ISYNA1 (11749810_s_at) / Fold change /veh ISYNA1 (11749810_s_at) / RFU ACY1 (11761880_at) / Fold change /veh ACY1 (11761880_at) / RFU 11764098_at / Fold change /veh 11764098_at / RFU SAMD14 (11745864_x_at) / Fold change /veh SAMD14 (11745864_x_at) / RFU NPB (11741838_a_at) / Fold change /veh NPB (11741838_a_at) / RFU TMPRSS6 (11731388_a_at) / Fold change /veh TMPRSS6 (11731388_a_at) / RFU KRTAP10-2 (11738614_at) / Fold change /veh KRTAP10-2 (11738614_at) / RFU ARHGAP8 /// PRR5-ARHGAP8 (11727945_x_at) / Fold change /veh ARHGAP8 /// PRR5-ARHGAP8 (11727945_x_at) / RFU KRTAP5-7 /// NADSYN1 (11734609_at) / Fold change /veh KRTAP5-7 /// NADSYN1 (11734609_at) / RFU RASL12 (11751679_a_at) / Fold change /veh RASL12 (11751679_a_at) / RFU CDKN2B (11736163_a_at) / Fold change /veh CDKN2B (11736163_a_at) / RFU PRF1 (11729649_at) / Fold change /veh PRF1 (11729649_at) / RFU, ZNF638 /// ZNF638-IT1 / Fold change vs veh, ZNF638 /// ZNF638-IT1 / RFU, PANK3 / Fold change vs veh, PANK3 / RFU, SH3YL1 / Fold change vs veh, SH3YL1 / RFU, ZEB2 / Fold change vs veh, ZEB2 / RFU, NRIP1 / Fold change vs veh, NRIP1 / RFU, PTTG1IP / Fold change vs veh, PTTG1IP / RFU, CAPN2 / Fold change vs veh, CAPN2 / RFU, MED14 / Fold change vs veh, MED14 / RFU, SNORA58 / Fold change vs veh, SNORA58 / RFU, C1orf63 / Fold change vs veh, C1orf63 / RFU, LRRFIP1 / Fold change vs veh, LRRFIP1 / RFU, NDUFAF7 / Fold change vs veh, NDUFAF7 / RFU, SLC12A2 / Fold change vs veh, SLC12A2 / RFU, IBTK / Fold change vs veh, IBTK / RFU, ESF1 / Fold change vs veh, ESF1 / Fold change vs veh, TMEM50B / RFU, TAOK1 / Fold change vs veh, TAOK1 / RFU, ACBD3 / Fold change vs veh, ACBD3 / RFU, TMA16 / Fold change vs veh, TMA16 / RFU, RWDD3 / Fold change vs veh, RWDD3 / RFU, BCAT1 / Fold change vs veh, BCAT1 / RFU, EDEM3 / Fold change vs veh, EDEM3 / RFU, TMEM33 / Fold change vs veh, TMEM33 / RFU, WDR75 / Fold change vs veh, WDR75 / RFU, AHCTF1 / Fold change vs veh, AHCTF1 / RFU, TFRC / Fold change vs veh, TFRC / RFU, ZDHHC17 / Fold change vs veh, ZDHHC17 / RFU, NOM1 / Fold change vs veh, NOM1 / RFU, ARL8B / Fold change vs veh, ARL8B / RFU, ZBTB11 / Fold change vs veh, ZBTB11 / RFU, TAMM41 / Fold change vs veh, TAMM41 / RFU, KIAA1704 /// LOC100996395 / Fold change vs veh, KIAA1704 /// LOC100996395 / RFU, ING1 / Fold change vs veh, ING1 / RFU, TRMT61B / Fold change vs veh, TRMT61B / RFU, FUBP3 / Fold change vs veh, FUBP3 / RFU, TP53 / Fold change vs veh, TP53 / RFU, TNKS2 / Fold change vs veh, TNKS2 / RFU, ZFP14 / Fold change vs veh, ZFP14 / RFU, ACTR2 / Fold change vs veh, ACTR2 / RFU, PPP3R1 / Fold change vs veh, PPP3R1 / RFU, PIK3R1 / Fold change vs veh, PIK3R1 / RFU, HNRNPA1 / Fold change vs veh, HNRNPA1 / RFU, RNF170 / Fold change vs veh, RNF170 / RFU, ZNF28 / Fold change vs veh, ZNF28 / RFU, RNGTT / Fold change vs veh, RNGTT / RFU, OGT / Fold change vs veh, OGT / RFU, BRD1 / Fold change vs veh, BRD1 / RFU, MARS / Fold change vs veh, MARS / RFU, ZNF655 / Fold change vs veh, ZNF655 / RFU, FAHD1 / Fold change vs veh, FAHD1 / RFU, BDP1 / Fold change vs veh, BDP1 / RFU, LRRCC1 / Fold change vs veh, LRRCC1 / RFU, ARID1A / Fold change vs veh, ARID1A / RFU, ZNF146 / Fold change vs veh, ZNF146 / RFU, ZNF330 / Fold change vs veh, ZNF330 / RFU, GPN3 / Fold change vs veh, GPN3 / RFU, C9orf123 / Fold change vs veh, C9orf123 / RFU, N4BP2L2 / Fold change vs veh, N4BP2L2 / RFU, ARFIP1 / Fold change vs veh, ARFIP1 / RFU, FAM179B / Fold change vs veh, FAM179B / RFU, BCL10 / Fold change vs veh, BCL10 / RFU, UHRF1BP1L / Fold change vs veh, UHRF1BP1L / RFU, BET1 / Fold change vs veh, BET1 / RFU, CNOT2 / Fold change vs veh, CNOT2 / RFU, ZNF268 / Fold change vs veh, ZNF268 / Fold change vs veh, ZNF507 / RFU, DGCR2 / Fold change vs veh, DGCR2 / RFU, WDSUB1 / Fold change vs veh, WDSUB1 / Fold change vs veh, HSP90B1 /// MIR3652 / RFU, ADSS / Fold change vs veh, ADSS / RFU, GK / Fold change vs veh, GK / RFU, ZNF148 / Fold change vs veh, ZNF148 / RFU, TAF9 / Fold change vs veh, TAF9 / RFU, SLC1A5 / Fold change vs veh, SLC1A5 / RFU, SLMO2 / Fold change vs veh, SLMO2 / RFU, ABCC4 / Fold change vs veh, ABCC4 / RFU, LOC101060439 /// RAP1B / Fold change vs veh, LOC101060439 /// RAP1B / RFU, RFX7 / Fold change vs veh, RFX7 / RFU, GTPBP10 / Fold change vs veh, GTPBP10 / RFU, CNEP1R1 / Fold change vs veh, CNEP1R1 / RFU, BIVM-ERCC5 /// ERCC5 / Fold change vs veh, BIVM-ERCC5 /// ERCC5 / RFU, ILF3 / Fold change vs veh, ILF3 / RFU 11762660_at / Fold change /veh 11762660_at / RFU VCAN (11757783_s_at) / Fold change /veh VCAN (11757783_s_at) / RFU DDX43 (11728927_at) / Fold change /veh DDX43 (11728927_at) / RFU KRT8 (11758188_x_at) / Fold change /veh KRT8 (11758188_x_at) / RFU NKD1 (11759106_at) / Fold change /veh NKD1 (11759106_at) / RFU SRD5A1 (11742802_a_at) / Fold change /veh SRD5A1 (11742802_a_at) / RFU TPSAB1 /// TPSB2 (11721975_s_at) / Fold change /veh TPSAB1 /// TPSB2 (11721975_s_at) / RFU GSTM3 (11746129_a_at) / Fold change /veh GSTM3 (11746129_a_at) / RFU IL23R (11737362_x_at) / Fold change /veh IL23R (11737362_x_at) / RFU TMEM51 (11727254_a_at) / Fold change /veh TMEM51 (11727254_a_at) / RFU PIWIL2 (11732686_x_at) / Fold change /veh PIWIL2 (11732686_x_at) / RFU ORM1 (11744905_x_at) / Fold change /veh ORM1 (11744905_x_at) / RFU CCDC152 (11743942_at) / Fold change /veh CCDC152 (11743942_at) / RFU ECM1 (11717891_a_at) / Fold change /veh ECM1 (11717891_a_at) / RFU IL23R (11748794_a_at) / Fold change /veh IL23R (11748794_a_at) / RFU TNFAIP8L3 (11732012_x_at) / Fold change /veh TNFAIP8L3 (11732012_x_at) / RFU MBOAT4 (11741988_at) / Fold change /veh MBOAT4 (11741988_at) / RFU 11764193_at / Fold change /veh 11764193_at / RFU TMEM53 (11763286_at) / Fold change /veh TMEM53 (11763286_at) / RFU MAGEB2 (11727129_at) / Fold change /veh MAGEB2 (11727129_at) / RFU TMEM200A (11744735_a_at) / Fold change /veh TMEM200A (11744735_a_at) / RFU CCDC152 (11751479_a_at) / Fold change /veh CCDC152 (11751479_a_at) / RFU FAM211A (11726209_a_at) / Fold change /veh FAM211A (11726209_a_at) / RFU RGS16 (11746705_a_at) / Fold change /veh RGS16 (11746705_a_at) / RFU VCAN (11755009_s_at) / Fold change /veh VCAN (11755009_s_at) / RFU RHOB (11743442_s_at) / Fold change /veh RHOB (11743442_s_at) / RFU RGS16 (11720943_a_at) / Fold change /veh RGS16 (11720943_a_at) / RFU RGS16 (11720944_at) / Fold change /veh RGS16 (11720944_at) / RFU, VPS4B / Fold change vs veh, VPS4B / RFU, CREB1 / Fold change vs veh, CREB1 / RFU, DNAJC13 / Fold change vs veh, DNAJC13 / RFU, GNAQ / Fold change vs veh, GNAQ / RFU, CDK5R1 / Fold change vs veh, CDK5R1 / RFU, ZRANB3 / Fold change vs veh, ZRANB3 / RFU, CUL4A / Fold change vs veh, CUL4A / RFU, CCNY / Fold change vs veh, CCNY / RFU, UFL1 / Fold change vs veh, UFL1 / RFU, COG3 / Fold change vs veh, COG3 / RFU, DIAPH2 / Fold change vs veh, DIAPH2 / RFU, SKA2 / Fold change vs veh, SKA2 / RFU, AFF3 / Fold change vs veh, AFF3 / RFU, LMF1 / Fold change vs veh, LMF1 / RFU, IPO11 / Fold change vs veh, IPO11 / RFU, DFFB / Fold change vs veh, DFFB / RFU, FOXP1 / Fold change vs veh, FOXP1 / RFU, CARD8 / Fold change vs veh, CARD8 / RFU, STRN3 / Fold change vs veh, STRN3 / RFU, ADK / Fold change vs veh, ADK / RFU, RASSF2 / Fold change vs veh, RASSF2 / RFU, WIPF1 / Fold change vs veh, WIPF1 / RFU, LARP1B / Fold change vs veh, LARP1B / RFU, RASA1 / Fold change vs veh, RASA1 / RFU, RB1 / Fold change vs veh, RB1 / RFU, PPFIA1 / Fold change vs veh, PPFIA1 / RFU, MAT2A / Fold change vs veh, MAT2A / RFU, CCT5 / Fold change vs veh, CCT5 / RFU, WDR92 / Fold change vs veh, WDR92 / RFU, CUX1 / Fold change vs veh, CUX1 / RFU, TTC7A / Fold change vs veh, TTC7A / RFU, TMEM135 / Fold change vs veh, TMEM135 / RFU, DEPTOR / Fold change vs veh, DEPTOR / RFU, CPM / Fold change vs veh, CPM / RFU, DNAJB6 / Fold change vs veh, DNAJB6 / RFU, CACNA2D3 / Fold change vs veh, CACNA2D3 / RFU, DTX4 / Fold change vs veh, DTX4 / RFU, TFCP2 / Fold change vs veh, TFCP2 / RFU, GMCL1 /// GMCL1P1 / Fold change vs veh, GMCL1 /// GMCL1P1 / RFU, AEBP2 / Fold change vs veh, AEBP2 / RFU, SNHG1 /// SNORD22 /// SNORD25 /// SNORD26 /// SNORD27 /// SNORD28 /// SNORD29 /// SNORD31 / Fold change vs veh, SNHG1 /// SNORD22 /// SNORD25 /// SNORD26 /// SNORD27 /// SNORD28 /// SNORD29 /// SNORD31 / Fold change (Aza/veh), C12orf56 (ProbeSet 11735607_a_at) / Fold change (ACY-1035/veh), C12orf56 (ProbeSet 11735607_a_at) / Fold change (Aza/veh), FGFR1OP (ProbeSet 11751329_s_at) / Fold change (ACY-1035/veh), FGFR1OP (ProbeSet 11751329_s_at) / Fold change (Aza/veh), VPS36 (ProbeSet 11739960_a_at) / Fold change (ACY-1035/veh), VPS36 (ProbeSet 11739960_a_at) / RFU SYPL1 (11715823_x_at) / Fold change /veh SYPL1 (11715823_x_at) / RFU IGFBP7 (11715501_s_at) / Fold change /veh IGFBP7 (11715501_s_at) / RFU REEP3 (11722064_at) / Fold change /veh REEP3 (11722064_at) / RFU IGLL1 (11728026_x_at) / Fold change /veh IGLL1 (11728026_x_at): dose or concentration left out as unconfirmed. As to conditions: MV-4-11 cells, 48 hours. The format is cell-based, human.

Molecules are shown by their SMILES.

As for `Nc1ccc(-c2cccs2)cc1NC(=O)c1ccc2c(c1)cc(C1CC1)n2CCN1CCOCC1` [ACY-1035], the “RFU ANKRD19P (11752326_a_at)” value stood at 5.89 RFU.
